Results as given in patent US12060347B2 (BRISTOL-MYERS SQUIBB COMPANY, priority 2016, dated 2024).

Target: T1, human PAR4 (Homo sapiens, UniProt Q96RI0)
T1 construct: expressed in transfected cells; host or cells: HEK293 PAR4 Clone 1.2A (BMS Arctic ID 383940)
T1 sequence (Q96RI0 18-385): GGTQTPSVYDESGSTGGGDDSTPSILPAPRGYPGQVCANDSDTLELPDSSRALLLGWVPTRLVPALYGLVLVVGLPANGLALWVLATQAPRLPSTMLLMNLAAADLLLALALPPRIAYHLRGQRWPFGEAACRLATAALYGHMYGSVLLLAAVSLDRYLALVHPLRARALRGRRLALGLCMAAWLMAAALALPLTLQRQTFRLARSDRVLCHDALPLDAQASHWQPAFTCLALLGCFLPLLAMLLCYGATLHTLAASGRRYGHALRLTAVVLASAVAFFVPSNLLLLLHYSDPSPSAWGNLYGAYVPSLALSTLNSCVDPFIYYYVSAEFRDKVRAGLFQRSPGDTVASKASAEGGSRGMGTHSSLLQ
Assay: PAR4 FLIPR assay: antagonism of agonist-peptide-induced calcium mobilization in PAR4-expressing HEK293 cells
Assay type: cell-based
Settings: H-Ala-Phe(4-F)-[…]NH2-induced intracellular calcium mobilization, 11-point curves

SMILES	IC50
COC(=O)c1cnc2c(-c3cc4ccccc4o3)cc(C)cc2n1 [Example 176, methyl 5-(benzofuran-2-yl)-7-methylquinoxaline-2-carboxylate]	980 nM
COc1cnc2c(-c3cc4ccccc4o3)cc(C)cc2c1 [Example 177, 8-(benzofuran-2-yl)-3-methoxy-6-methylquinoline]	190 nM
Cc1cc(-c2nc3c(s2)CCCC3)c2ncc(OC(F)F)nc2c1 [Example 178, 2-(2-(difluoromethoxy)-7-methylquinoxalin-5-yl)-4,5,6,7-tetrahydrobenzo[d]thiazole]	13 nM
COc1cnc2c(-c3nc4c(C)cc(OC)nc4s3)cc(C)cc2n1 [Example 179, 5-methoxy-2-(2-methoxy-7-methylquinoxalin-5-yl)-7-methylthiazolo[5,4-b]pyridine]	18 nM
COCc1cnc2c(-c3nc4cc(F)c(OC)nc4s3)cc(C)cc2n1 [Example 180, 6-fluoro-5-methoxy-2-(2-(methoxymethyl)-7-methylquinoxalin-5-yl)thiazolo[5,4-b] pyridine]	2.7 nM
COCc1cnc2c(-c3nc4c(C)cc(OC)nc4s3)cc(C)cc2n1 [Example 181, 5-methoxy-2-(2-(methoxymethyl)-7-methylquinoxalin-5-yl)-7-methylthiazolo[5,4-b] pyridine]	1.2 nM
COc1cnc2c(-c3nc4cc(F)c(OC)nc4s3)cc(C)cc2n1 [Example 182, 6-fluoro-5-methoxy-2-(2-methoxy-7-methylquinoxalin-5-yl)thiazolo[5,4-b]pyridine]	22 nM
COCc1cnc2c(-c3nc4c(C)cc(OC)cc4s3)cc(C)cc2n1 [Example 183, 6-methoxy-2-(2-(methoxymethyl)-7-methylquinoxalin-5-yl)-4-methylbenzo[d]thiazole]	0.6 nM
COC(C)c1cnc2c(-c3cc4ccccc4o3)cc(C)cc2n1 (stereo not shown) [Example 184, 5-(benzofuran-2-yl)-2-(1-methoxyethyl)-7-methylquinoxaline]	2300 nM
COCc1cnc2c(-c3nc4c(C)cc(OC)cc4s3)cc(C)cc2c1 [Example 185, 6-methoxy-2-(3-(methoxymethyl)-6-methylquinolin-8-yl)-4-methylbenzo[d]thiazole]	6.5 nM
COc1cc(C)c2nc(-c3cc(C)cc4nc(C(F)(F)OC)cnc34)sc2c1 [Example 186, 2-(2-(difluoro(methoxy)methyl)-7-methylquinoxalin-5-yl)-6-methoxy-4-methylbenzo[d]thiazole]	17 nM
COc1cc(C)c2nc(-c3cc(C)cc4nc(COc5ccccc5)cnc34)sc2c1 [Example 187, 6-methoxy-4-methyl-2-(7-methyl-2-(phenoxymethyl)quinoxalin-5-yl)benzo[d]thiazole]	390 nM
COc1cc(C)c2nc(-c3cc(C)cc4nc(CN(C)C)cnc34)sc2c1 [Example 188, 1-(5-(6-methoxy-4-methylbenzo[d]thiazol-2-yl)-7-methylquinoxalin-2-yl)-N,N-dimethylmethanamine]	580 nM
CCOCc1cnc2c(-c3nc4c(C)cc(OC)cc4s3)cc(C)cc2n1 [Example 189, 2-(2-(ethoxymethyl)-7-methylquinoxalin-5-yl)-6-methoxy-4-methylbenzo[d]thiazole]	140 nM
COCc1cnc2c(-c3nc4c(C)cc(OC)cc4s3)cc(C)cc2c1OC [Example 190, 6-methoxy-2-(4-methoxy-3-(methoxymethyl)-6-methylquinolin-8-yl)-4-methylbenzo[d]thiazole]	1700 nM
COCc1cnc2c(-c3nc4c(C)cc(Cl)nc4s3)cc(C)cc2n1 [Example 191, 5-chloro-2-(2-(methoxymethyl)-7-methylquinoxalin-5-yl)-7-methylthiazolo[5,4-b] pyridine]	6.4 nM
COCc1cnc2c(-c3nc4c(CO)cc(OC)nc4s3)cc(C)cc2n1 [Example 192, (5-methoxy-2-(2-(methoxymethyl)-7-methylquinoxalin-5-yl)thiazolo[5,4-b]pyridin-7-yl) methanol]	2.8 nM
COCc1cnc2c(-c3nc4c(C)cc(OCCNS(=O)(=O)c5ccc(F)cc5)nc4s3)cc(C)cc2n1 [Example 193, 4-fluoro-N-(2-((2-(2-(methoxymethyl)-7-methylquinoxalin-5-yl)-7-methylthiazolo[5,4-b]pyridin-5-yl)oxy)ethyl)benzenesulfonamide]	1.2 nM
COc1cnc2c(-c3nc4c(C)cc(OCCNS(=O)(=O)c5ccc(F)cc5)nc4s3)cc(C)cc2n1 [Example 194, 4-fluoro-N-(2-((2-(2-methoxy-7-methylquinoxalin-5-yl)-7-methylthiazolo[5,4-b]pyridin-5-yl)oxy)ethyl)benzenesulfonamide]	2.5 nM

SMILES	IC50
COCc1cnc2c(-c3cc4ccccc4o3)cc(C)cc2n1 [Example 195, 5-(benzofuran-2-yl)-2-(methoxymethyl)-7-methylquinoxaline]	32 nM
COc1cnc2c(-c3nc4c(C)cc(OCCOC(=O)Nc5cccnc5)nc4s3)cc(C)cc2n1 [Example 196, 2-((2-(2-methoxy-7-methylquinoxalin-5-yl)-7-methylthiazolo[5,4-b]pyridin-5-yl)oxy)ethyl pyridin-3-ylcarbamate]	2.3 nM
COc1cnc2c(-c3nc4c(C)cc(OCCOC(=O)Nc5ccc(C#N)nc5)nc4s3)cc(C)cc2n1 [Example 197, 2-((2-(2-methoxy-7-methylquinoxalin-5-yl)-7-methylthiazolo[5,4-b]pyridin-5-yl)oxy)ethyl (6-cyanopyridin-3-yl)carbamate]	1.3 nM
COc1cnc2c(-c3nc4cc(F)c(OCCOC(=O)Nc5ccc(C#N)nc5)nc4s3)cc(C)cc2n1 [Example 198, 2-((6-fluoro-2-(2-methoxy-7-methylquinoxalin-5-yl)thiazolo[5,4-b]pyridin-5-yl)oxy)ethyl (6-cyanopyridin-3-yl)carbamate]	0.6 nM
COc1cnc2c(-c3nc4c(C)cc(OCCNS(=O)(=O)c5ccc(F)cc5)cc4s3)cc(Cl)cc2n1 [Example 199, N-(2-((2-(7-chloro-2-methoxyquinoxalin-5-yl)-4-methylbenzo[d]thiazol-6-yl)oxy)ethyl)-4-fluorobenzenesulfonamide]	2.5 nM
COCc1cnc2c(-c3nc4c(C)cc(OCCNS(=O)(=O)c5ccc(F)cc5)cc4s3)cc(Cl)cc2n1 [Example 200, N-(2-((2-(7-chloro-2-(methoxymethyl)quinoxalin-5-yl)-4-methylbenzo[d]thiazol-6-yl)oxy)ethyl)-4-fluorobenzenesulfonamide]	1.6 nM
COCc1cnc2c(-c3nc4ccc(OC)cc4s3)cc(Cl)cc2n1 [Example 201, 2-(7-chloro-2-(methoxymethyl)quinoxalin-5-yl)-6-methoxybenzo[d]thiazole]	1.3 nM
COCc1cnc2c(-c3nc4ccc(OC)cc4s3)cc(Cl)cc2n1 [Example 202, 2-(7-chloro-2-(methoxymethyl)quinoxalin-5-yl)-6-methoxybenzo[d]thiazole]	0.9 nM
COCc1cnc2c(-c3nc4c(C)cc(OC)cc4s3)cc(OC(F)(F)F)cc2n1 [Example 203, 6-methoxy-2-(2-(methoxymethyl)-7-(trifluoromethoxy)quinoxalin-5-yl)-4-methylbenzo[d] thiazole]	4.1 nM
COCc1cnc2c(-c3nc4c(C)cc(OC)cc4s3)cc(C(=O)OC)cc2n1 [Example 204, methyl 8-(6-methoxy-4-methylbenzo[d]thiazol-2-yl)-3-(methoxymethyl) quinoxaline-6-carboxylate]	3.1 nM
COCc1cnc2c(-c3nc4c(C)cc(OCCNS(=O)(=O)c5ccc(F)cc5)cc4s3)cc(C(=O)OC)cc2n1 [Example 205, methyl 8-(6-(2-(4-fluorophenylsulfonamido)ethoxy)-4-methylbenzo[d]thiazol-2-yl)-3-(methoxymethyl)quinoxaline-6-carboxylate]	51 nM
COCc1cnc2c(-c3nc4c(C)cc(OC)cc4s3)cc(F)cc2n1 [Example 206, 2-(7-fluoro-2-(methoxymethyl)quinoxalin-5-yl)-6-methoxy-4-methylbenzo[d]thiazole]	0.7 nM
COCc1cnc2c(-c3nc4c(C)cc(OCCNS(=O)(=O)c5ccc(F)cc5)cc4s3)cc(F)cc2n1 [Example 207, 4-fluoro-N-(2-((2-(7-fluoro-2-(methoxymethyl)quinoxalin-5-yl)-4-methylbenzo[d]thiazol-6-yl)oxy)ethyl)benzenesulfonamide]	0.9 nM
COCc1cnc2c(-c3nc4c(C)cc(OC)cc4s3)cc(C(F)(F)F)cc2n1 [Example 208, 6-methoxy-2-(2-(methoxymethyl)-7-(trifluoromethyl)quinoxalin-5-yl)-4-methylbenzo[d]thiazole]	1.1 nM
COCc1cnc2c(-c3nc4c(C)cc(OCCNS(=O)(=O)c5ccc(F)cc5)cc4s3)cc(C(F)(F)F)cc2n1 [Example 209, 4-fluoro-N-(2-((2-(2-(methoxymethyl)-7-(trifluoromethyl)quinoxalin-5-yl)-4-methylbenzo[d]thiazol-6-yl)oxy)ethyl)benzenesulfonamide]	1.1 nM
COCc1cnc2c(-c3nc4c(Cl)cc(OC)cc4s3)cc(Cl)cc2n1 [Example 210, 4-chloro-2-(7-chloro-2-(methoxymethyl)quinoxalin-5-yl)-6-methoxybenzo[d]thiazole]	0.3 nM
COc1cc(C)c2nc(-c3cc(C#N)cc4nc(OC)cnc34)sc2c1 [Example 211, 3-methoxy-8-(6-methoxy-4-methylbenzo[d]thiazol-2-yl)quinoxaline-6-carbonitrile]	21 nM
COCc1cnc2c(-c3nc4c(Cl)cc(OC)cc4s3)cccc2n1 [Example 212, 4-chloro-6-methoxy-2-(2-(methoxymethyl)quinoxalin-5-yl)benzo[d]thiazole]	2.4 nM
